The subject of the experiment is infant fecal bacteria. Put plainly: In vitro substrate fermentation model with infant fecal inocula, isobutyrate (BCFA) analysis (Example 78). Format: cell-based. Particulars: for greater concentration of isobutyrate than any of the other substrates: infant fecal inoculum cultures, P<0.05.

Results on one substance are retold here after US10639319B2, “Human milk oligosaccharides for preventing injury and/or promoting healing of the gastrointestinal tract” (ABBOTT LABORATORIES, priority 2011, dated 2020).

On to 2′-α-L-Fucopyranosyl-D-Lactose [2′-FL], for which, under “in vitro fermentation model”, the “fermentation by infant fecal bacteria” value is recorded as “readily fermented” and the “production of isobutyrate as compared to other substrates” value was “enhances”. Further, the “greater concentration of isobutyrate than any of the other substrates” value (6 hours) is recorded as “approximately 5 fold”. Moreover, the “greater concentration of isobutyrate than any of the other substrates” value (12 hours) is reported as approximately 10 fold.
